Patent US20080021002A1, “VITAMIN D COMPOUNDS USED TO STABILIZE KIDNEY TRANSPLANTS” (priority 2000, published 2008)

Tests used:
Type in all cases: in vivo, rat
Vitamin D receptor mRNA = test: Semi-quantitative RT-PCR of renal grafts, vitamin D receptor mRNA
Experimental: Semi-quantitative Reverse transcription polymerace chain reaction (RT-PCR): Following graft harvest a […] containing both cortex and medulla was snap frozen in liquid nitrogen. Semi-quantitative RT-PCR was performed as described. Little et al. Transplant Int. […] Briefly, samples were homogenized then total RNA extracted with RNAzol B (Tel Test, Inc., Friendswood, Tex.) and reversed transcribed to cDNA according to manufacturer=s instructions (Superscript, Gibco BRL). PCR was performed over the linear range of amplification for both the gene of interest, e.g. TGFβ-1, and the ribosomal protein S26 as a control housekeeping gene. PCR conditions were chosen such that both products were amplified with similar efficiency. The following cycle parameters were employed: denaturing, 94° C. for 60 seconds; annealing, 61° C. for 60 seconds; and extension, 72° C. for 60 seconds. The amount of product was quantified using a phosphoimager (Storm 80) following gel electrophoresis and Vista green detection.

[1] = test system: Fisher to Lewis renal allograft; test: Fisher to Lewis renal allograft model of chronic allograft nephropathy (graft survival, serum creatinine, urinary protein, histology)
Experimental: Animals: Donor and recipients rats (greater than 250 gm) were obtained from Harlan Sprague Dawley, Indianapois, Ind. Recipient animals were placed on experimental diet containing 0.47% Ca 7 days prior to transplantation. Hullett et al., Transplantation 66:824-828, 1998. Recipients were divided into groups which received experimental diet alone or experimental diet containing 1,25-(OH)2D3 (250, 500, or 1000 ng/rat/day) or cyclosporine 1.5 or 5 mg/kg/day i.p. for 10 days. Animals were maintained on diet until the time or rejection or graft harvest at 24 weeks. All care and use of laboratory animals followed the NIH (NIH publication No. 86-23) guidelines. 1,25-(OH)2D3 was prepared, dissolved in ethanol and placed in the experimental diet as previously described.1,25-(OH)2D3 was the generous gift or Dr. Hector DeLuca, Department of Biochemistry, University of Wisconsin. Cyclosporine (Sandimmune i.v.; 1.5 or 5 mg/kg/day for 10 days,) was diluted in saline and given i.p. Transplantation: The Fisher to Lewis model of chronic allograft nephropathy has been previously described. Diamond et al., Transplantation 54:710-716, 1992. Briefly, donor kidneys obtained from male Fisher 344 rats were flushed with 10 ml cold University of Wisconsin preservation solution and stored at 4° C. while the recipient was prepared. […] Lewis male recipients were transplanted with either a Fisher 344 or Lewis kidney following left native nephrectomy. Briefly, the donor renal artery, vein and ureter were anastomosed to the recipient renal artery, vein and ureter. The right native kidney was removed 10 days post-transplant. Graft function was monitored by serum creatinine and urinary protein determinations. Urinary Protein: Proteinuria was assessed weekly. Animals were placed in metabolic cages for 6 hours and urine collected. Protein excretion was determined using a dye binding assay (quanTest red, Quantimetrix Corp., Redondo Beach, Calif.) according to manufacturer=s instructions with minor modifications. Briefly, 20 μl of the urine sample was diluted with 1×PBS in a two-fold series dilution in 96-well flat-bottom microtiter plates (Corning, N.Y.). […] Data was analyzed with Softmax Pro-software (Molecular Devices Corp.; Sunnyvale, Calif.). Graft survival was compared using the log rank test. Differences in mRNA and protein expression were compared by t-test.

TGFβ-1 mRNA = test: Semi-quantitative RT-PCR of renal grafts, TGFβ-1 mRNA; conditions: treated recipients vs untreated allogeneic control grafts
Experimental: Semi-quantitative Reverse transcription polymerace chain reaction (RT-PCR): Following graft harvest a […] containing both cortex and medulla was snap frozen in liquid nitrogen. Semi-quantitative RT-PCR was performed as described. Little et al. Transplant Int. 12:393-401, 1999. Briefly, samples were homogenized then total RNA extracted with RNAzol B (Tel Test, Inc., Friendswood, Tex.) and reversed transcribed to cDNA according to manufacturer=s instructions (Superscript, Gibco BRL). PCR was performed over the linear range of amplification for both the gene of interest, e.g. TGFβ-1, and the ribosomal protein S26 as a control housekeeping gene. PCR conditions were chosen such that both products were amplified with similar efficiency. The following cycle parameters were employed: denaturing, 94° C. for 60 seconds; annealing, 61° C. for 60 seconds; and extension, 72° C. for 60 seconds. The amount of product was quantified using a phosphoimager (Storm 80) following gel electrophoresis and Vista green detection.

[2] = allograft, 500 ng/rat/day, FIG. 2B

## C=C1/C(=C\C=C2/CCC[C@]3(C)[C@@H]([C@H](C)CCCC(C)(C)O)CC[C@@H]23)C[C@@H](O)C[C@@H]1O [calcitriol, 1,25-dihydroxyvitamin D3]
Vitamin D receptor mRNA; all treated groups vs untreated syngeneic control (data not shown)
  Vitamin D receptor mRNA expression: elevated
Vitamin D receptor mRNA; vs untreated allogeneic control (data not shown)
  Vitamin D receptor mRNA expression: not significantly different
[1]; 250 ng/day in diet, p=0.04
  Graft survival: prolonged graft survival was not as readily demonstrated
[1]; 500 ng/rat/day in diet, vs allogeneic untreated controls, p=0.0009
  Graft survival: significant prolongation of graft survival was sustained
[1]; 500 ng/rat/day monotherapy (data not shown), vs untreated allogeneic controls or CSA 1.5 mg/kg/d
  Urinary protein: significantly lowered
[1]; 1000 ng
  Calcium deposits in graft: Significant calcium deposits
[1]; 1000 ng/rat/day in diet, monotherapy, vs allogeneic untreated controls, p=0.0031
  Graft survival: significantly prolonged
[1]; 1000 ng/rat/day monotherapy, p=0.004, vs untreated allogeneic controls or CSA 1.5 mg/kg/d (10 days)
  Urinary protein: significantly lowered
[1]; 250 and 500 ng/day groups
  Calcium deposition, histological examination: reduced calcium deposition
  Cellular infiltration, histological examination (Banff): mild to moderate cellular infiltration (Banff IA or IIA)
[1]; 250 and 500 ng/day groups (data not shown)
  Serum calcium levels: remained elevated
[1]; 500 or 250 ng/day
  Rise in serum creatinine at 2 weeks post-transplant: Neither the 500 or the 250 ng/day dose of 1,25-(OH)2D3 prevented the rise
[1]; 1000 or 500 ng/rat/day
  Prolonged graft survival compared with low dose CSA (5 mg/kg/day for 10 days): not statistically different
[1]; CSA: short-term low dose monotherapy, 1,25-(OH)2D3 in diet
  Early acute rejection episode (within 2 weeks post-transplant): diminished
[1]; [2]
  Cellular infiltration (H&E): significantly decreased
  Interstitial fibrosis (H&E): little or no interstitial fibrosis
[1]; allografts, H&E, FIG. 2B
  Histological features of CAN (interstitial fibrosis, glomerulosclerosis, neointimal hyperplasia): inhibited the development of these pathological features
[1]; p=0.035 versus untreated allogeneic control (FIG. 1B)
  Serum creatinine at 2 weeks post-transplant: only a slight increase
[1]; treated allograft recipients, FIG. 2D-E
  Collagen deposition (trichrome stain): decreased collagen deposition
TGFβ-1 mRNA
  TGFβ-1 mRNA levels: no significant difference
